Consider four compounds from patent US12297182B2, “Compositions comprising an urolithin compound” (Amazentis SA, priority 2015, dated 2025).

The subject of series [1] is 22 month old C57BL/6J old mice. Nature of the series: Treadmill endurance test in old mice fed a high protein diet with or without Urolithin A. It is filed as in vivo. The settings on record: Urolithin A 50 mg/kg/day in high protein diet, 6 weeks, normalized over basal values, compared to mice receiving only a protein diet; no exercise regimen. The source says:
To mimic age related muscle loss in humans, an experimental animal model was setup in old mice. The control diet designed to be used in the experimental study was a high protein diet that would be analogous to a clinically recommended high protein diet in elderly humans at risk of muscle loss. The diet was formulated to improve the performance of old animals that consume them. The high protein diet has a better balance of essential nutrients (amino acids, vitamins and minerals) and is supplemented with 200 gr casein per kg of diet, instead of 140 gr of casein in the regular maintenance diet (Reeves PG, J. Nutr. 1997, 127(5) 838S-841S). Casein proteins are nutritionally complete, highly digestible proteins with high amino scores that contain all amino acids in amounts sufficient to support maintenance of all body proteins. Urolithin A was admixed to the high protein diet at a level of 0.57 g per kg of diet. Both the diets were isocaloric. 22 month old C57BL/6J old mice that would be equivalent to a 65 yr to 75 yr old elderly human were treated with either the high protein diet alone or a high protein diet containing Urolithin A. Both the diets contained in addition to the casein protein, essential nutrient for optimal muscle function such as L-cysteine and vitamins and mineral mix. The level of Urolithin A in the diet results in a dose of 50 mg/kg/day delivered to mice. […]

On the set-up of series [2]: species or system male Sprague-Dawley rats. The settings on record: rat, in vivo, po. The procedure: The solutions for gavage were prepared as follows: 35 mg of urolithin A powder was diluted in 7 ml of 15% DMSO, 0.5% methyl cellulose/0.25% Tween 80 in water, resulting in a 5 mg/ml fine suspension. The DMSO was obtained from BDH, methyl cellulose was obtained from Sigma, and Tween 80 was obtained from Sigma-Aldrich.
Blood was collected from the rats by jugular vein cannulation at different time points, and urolithin A was quantified in the plasma to determine its pharmacokinetic profile following oral gavage of Sample #1, Sample #2, and Sample #3. The study was repeated on three rats for each sample. […]

The next series concerns myotubes. The settings on record: in vitro; cited from earlier work.

Molecules are shown by their SMILES.

`O=c1oc2cc(O)ccc2c2ccc(O)cc12` [Urolithin A]: in series [1], the “increase in running distance” value is given as 42% and the “increase in running time” value turned out to be 28%. In addition, the “bioavailability (in words)” value in series [2] is on record as “increase in bioavailability”.
For the compound `O=c1oc2cc(O)ccc2c2ccc(O)cc12` [Sample #2, Urolithin A], in series [2] (male, Sprague-Dawley, 25 mg/kg), the “fold increase in the Cmax” value came to 2.16 fold, the “relative increase in the AUC” value worked out at 28% and the “relative increase in the Cmax” value stood at 116%.
For the compound `O=c1oc2cc(O)ccc2c2ccccc12` [Urolithin B], the “effect on mean diameter of myotubes” value in the series with myotubes is “increased”.
As for `O=c1oc2cc(O)ccc2c2ccc(O)cc12` [Sample #3, Urolithin A], the “relative increase in the AUC” value in series [2] (male, Sprague-Dawley, 25 mg/kg) is on record as 26%.
